Counter-ions that a name gives are not always drawn. Active and inactive are the calls of the source. The rule behind the calls is not given here.
Columns and labels:
[1] = molecular target: 5-hydroxytryptamine receptor 2B (Homo sapiens, UniProt P41595); assay: Binding affinity to 5-HT2BR (unknown origin)
[2] = molecular target: D(2) dopamine receptor (Homo sapiens, UniProt P14416); assay: Displacement of [3H]-raclopride from human D2L receptor expressed in HEK293 cells incubated for 1 hr by liquid scintillation counting method; assay type: cell-based
[3] = molecular target: 5-hydroxytryptamine receptor 7 (Homo sapiens, UniProt P34969); assay: Displacement of [3H]-5-CT from human 5HT7 receptor expressed in HEK293 cells incubated for 1 hr by liquid scintillation counting method; assay type: cell-based
[4] = molecular target: T1, 5-hydroxytryptamine receptor 1A (Homo sapiens, UniProt P08908)
T1 sequence (P08908 whole entry): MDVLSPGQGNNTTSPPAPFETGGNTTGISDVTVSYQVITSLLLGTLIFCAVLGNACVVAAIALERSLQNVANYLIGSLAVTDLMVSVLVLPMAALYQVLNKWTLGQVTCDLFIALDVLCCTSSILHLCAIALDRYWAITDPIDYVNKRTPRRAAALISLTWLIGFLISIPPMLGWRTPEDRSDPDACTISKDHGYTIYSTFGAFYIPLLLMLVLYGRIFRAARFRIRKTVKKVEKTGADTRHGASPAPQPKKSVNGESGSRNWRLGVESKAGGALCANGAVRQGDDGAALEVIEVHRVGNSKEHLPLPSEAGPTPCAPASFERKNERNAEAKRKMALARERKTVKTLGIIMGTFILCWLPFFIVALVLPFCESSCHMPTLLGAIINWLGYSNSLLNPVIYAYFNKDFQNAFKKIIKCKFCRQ

[5] = tested on: Mus musculus; assay: Induction of hypothermia in CD-1 mouse assessed as change in body temperature at 5 mg/kg, ip measured after 30 mins by thermometric method; assay type: functional, organism-based
[6] = tested on: Mus musculus; assay: Antidepressant-like activity in CD-1 mouse assessed as decrease in immobility time at 10 mg/kg, ip treated for 30 mins and measured for 4 mins by forced swim test; assay type: functional, organism-based
[7] = tested on: Mus musculus; assay: Induction of hypothermia in CD-1 mouse assessed as change in body temperature at 10 mg/kg, ip measured after 30 mins by thermometric method; assay type: functional, organism-based
[8] = tested on: Mus musculus; assay: Induction of hypothermia in CD-1 mouse assessed as change in body temperature at 15 mg/kg, ip measured after 30 mins by thermometric method (reference value: -0.2 to 0.4 deg C); assay type: functional, organism-based
[9] = tested on: Mus musculus; assay: Induction of hypothermia in CD-1 mouse assessed as change in body temperature at 20 mg/kg, ip measured after 30 mins by thermometric method; assay type: functional, organism-based
[10] = tested on: Mus musculus; assay: Induction of hypothermia in CD-1 mouse assessed as change in body temperature at 5 mg/kg, ip measured after 60 mins by thermometric method; assay type: functional, organism-based
[11] = tested on: Mus musculus; assay: Induction of hypothermia in CD-1 mouse assessed as change in body temperature at 10 mg/kg, ip measured after 60 mins by thermometric method; assay type: functional, organism-based
[12] = tested on: Mus musculus; assay: Induction of hypothermia in CD-1 mouse assessed as change in body temperature at 15 mg/kg, ip measured after 60 mins by thermometric method (reference value: -0.2 to 0.5 deg C); assay type: functional, organism-based
[13] = tested on: Mus musculus; assay: Induction of hypothermia in CD-1 mouse assessed as change in body temperature at 20 mg/kg, ip measured after 60 mins by thermometric method; assay type: functional, organism-based
[14] = tested on: Mus musculus; assay: Induction of hypothermia in CD-1 mouse assessed as change in body temperature at 5 mg/kg, ip measured after 90 mins by thermometric method; assay type: functional, organism-based
[15] = tested on: Mus musculus; assay: Induction of hypothermia in CD-1 mouse assessed as change in body temperature at 10 mg/kg, ip measured after 90 mins by thermometric method; assay type: functional, organism-based
[16] = tested on: Mus musculus; assay: Induction of hypothermia in CD-1 mouse assessed as change in body temperature at 15 mg/kg, ip measured after 90 mins by thermometric method (reference value: -0.3 to 0.3 deg C); assay type: functional, organism-based
[17] = tested on: Mus musculus; assay: Induction of hypothermia in CD-1 mouse assessed as change in body temperature at 20 mg/kg, ip measured after 90 mins by thermometric method; assay type: functional, organism-based
[18] = tested on: Mus musculus; assay: Induction of hypothermia in CD-1 mouse assessed as change in body temperature at 5 mg/kg, ip measured after 120 mins by thermometric method; assay type: functional, organism-based
[19] = tested on: Mus musculus; assay: Induction of hypothermia in CD-1 mouse assessed as change in body temperature at 10 mg/kg, ip measured after 120 mins by thermometric method; assay type: functional, organism-based
[20] = tested on: Mus musculus; assay: Induction of hypothermia in CD-1 mouse assessed as change in body temperature at 15 mg/kg, ip measured after 120 mins by thermometric method (reference value: -0.1 to 0.3 deg C); assay type: functional, organism-based
[21] = tested on: Mus musculus; assay: Induction of hypothermia in CD-1 mouse assessed as change in body temperature at 20 mg/kg, ip measured after 120 mins by thermometric method; assay type: functional, organism-based
[22] = tested on: Mus musculus; assay: Induction of hypothermia in CD-1 mouse assessed as change in body temperature at 10 mg/kg, ip pretreated for 30 mins with 5-HT1AR antagonist WAY100635 followed by compound treatment and measured after 30 mins by thermometric method; assay type: functional, organism-based
[23] = tested on: Mus musculus; assay: Induction of hypothermia in CD-1 mouse assessed as change in body temperature at 10 mg/kg, ip pretreated for 60 mins with 5-HT1AR antagonist WAY100635 followed by compound treatment and measured after 30 mins by thermometric method; assay type: functional, organism-based
[24] = Half life in human liver microsomes at 1 uM measured for 5 to 30 mins in presence of NADPH by LC-MS/MS analysis; assay type: ADME, Microsome
[25] = molecular target: T2, hERG (KCNH2) (Homo sapiens, UniProt Q12809); assay: Inhibition of human ERG at 10 uM by automated patch-clamp assay relative to control
[26] = molecular target: T2, hERG (KCNH2); assay: Inhibition of human ERG at 1 uM by automated patch-clamp assay relative to control
[27] = molecular target: T2, hERG (KCNH2); assay: Inhibition of human ERG at 0.1 uM by automated patch-clamp assay relative to control
[28] = tested on: Mus musculus; assay: Antidepressant-like activity in CD-1 mouse at 10 mg/kg, ip treated for 30 mins and measured for 4 mins by forced swim test
[29] = tested on: Alpha-1 adrenergic receptor (Rattus norvegicus); assay: Displacement of [3H]-prazosin from rat cortex alpha1 adrenergic receptor incubated for 30 mins by microbeta scintillation counting method
[30] = molecular target: T3, 5-hydroxytryptamine receptor 2C (Homo sapiens, UniProt P28335); assay: Binding affinity to 5-HT2CR (unknown origin)
T3 sequence (P28335 whole entry): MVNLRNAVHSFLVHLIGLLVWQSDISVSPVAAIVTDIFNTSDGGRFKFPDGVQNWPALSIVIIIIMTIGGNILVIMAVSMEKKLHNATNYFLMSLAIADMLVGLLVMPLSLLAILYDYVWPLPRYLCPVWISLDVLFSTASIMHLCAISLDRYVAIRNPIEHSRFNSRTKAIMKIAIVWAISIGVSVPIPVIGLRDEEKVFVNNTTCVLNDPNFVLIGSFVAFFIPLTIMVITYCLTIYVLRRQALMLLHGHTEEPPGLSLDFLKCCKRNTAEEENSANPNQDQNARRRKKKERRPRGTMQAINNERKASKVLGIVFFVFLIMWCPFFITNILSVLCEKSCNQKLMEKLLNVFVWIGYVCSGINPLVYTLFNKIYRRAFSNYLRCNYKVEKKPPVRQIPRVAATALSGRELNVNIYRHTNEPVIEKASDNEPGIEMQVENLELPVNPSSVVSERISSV

T2 sequence (Q12809 whole entry): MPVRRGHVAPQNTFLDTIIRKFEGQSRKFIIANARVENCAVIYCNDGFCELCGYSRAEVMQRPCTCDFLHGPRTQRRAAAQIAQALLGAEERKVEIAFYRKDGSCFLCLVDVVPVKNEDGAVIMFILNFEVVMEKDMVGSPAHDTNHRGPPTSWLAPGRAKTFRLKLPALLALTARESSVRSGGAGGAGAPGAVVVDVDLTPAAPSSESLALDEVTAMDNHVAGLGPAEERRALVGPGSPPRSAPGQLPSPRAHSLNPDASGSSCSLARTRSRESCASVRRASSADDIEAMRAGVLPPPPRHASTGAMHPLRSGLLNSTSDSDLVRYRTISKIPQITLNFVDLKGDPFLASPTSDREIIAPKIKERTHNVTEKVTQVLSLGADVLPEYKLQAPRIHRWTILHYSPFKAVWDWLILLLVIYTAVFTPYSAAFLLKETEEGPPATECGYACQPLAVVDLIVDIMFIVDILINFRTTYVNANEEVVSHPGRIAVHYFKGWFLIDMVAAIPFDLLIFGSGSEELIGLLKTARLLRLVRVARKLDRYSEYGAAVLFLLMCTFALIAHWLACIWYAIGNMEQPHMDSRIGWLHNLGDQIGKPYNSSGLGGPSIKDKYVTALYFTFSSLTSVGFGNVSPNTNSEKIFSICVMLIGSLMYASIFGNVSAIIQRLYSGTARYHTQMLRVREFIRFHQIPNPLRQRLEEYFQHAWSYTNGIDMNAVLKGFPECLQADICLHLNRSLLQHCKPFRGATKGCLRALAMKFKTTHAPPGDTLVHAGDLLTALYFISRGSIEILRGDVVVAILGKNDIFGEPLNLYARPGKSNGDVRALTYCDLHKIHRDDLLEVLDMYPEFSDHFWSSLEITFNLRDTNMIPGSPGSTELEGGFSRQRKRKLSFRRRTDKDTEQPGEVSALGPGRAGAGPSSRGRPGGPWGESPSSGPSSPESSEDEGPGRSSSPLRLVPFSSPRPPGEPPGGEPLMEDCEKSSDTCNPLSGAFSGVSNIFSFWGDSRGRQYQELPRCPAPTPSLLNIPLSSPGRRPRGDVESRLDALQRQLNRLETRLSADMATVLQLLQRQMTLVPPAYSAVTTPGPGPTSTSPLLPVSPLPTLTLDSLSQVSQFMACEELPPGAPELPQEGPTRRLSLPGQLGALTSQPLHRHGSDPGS
5-hydroxytryptamine receptor 7, sequence (P34969 whole entry): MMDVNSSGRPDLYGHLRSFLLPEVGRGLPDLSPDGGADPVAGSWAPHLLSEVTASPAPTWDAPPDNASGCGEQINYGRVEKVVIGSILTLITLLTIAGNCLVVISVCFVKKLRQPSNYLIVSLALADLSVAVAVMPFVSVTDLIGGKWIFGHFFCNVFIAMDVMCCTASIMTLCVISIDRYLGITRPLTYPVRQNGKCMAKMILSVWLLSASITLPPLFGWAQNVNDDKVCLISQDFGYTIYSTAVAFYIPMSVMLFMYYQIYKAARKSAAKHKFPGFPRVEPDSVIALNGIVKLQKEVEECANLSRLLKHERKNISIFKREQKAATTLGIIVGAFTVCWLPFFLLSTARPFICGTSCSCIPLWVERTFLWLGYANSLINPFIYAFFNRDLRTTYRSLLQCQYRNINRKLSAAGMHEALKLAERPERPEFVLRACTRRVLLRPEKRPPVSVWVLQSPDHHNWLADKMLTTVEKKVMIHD
D(2) dopamine receptor, sequence (P14416 whole entry): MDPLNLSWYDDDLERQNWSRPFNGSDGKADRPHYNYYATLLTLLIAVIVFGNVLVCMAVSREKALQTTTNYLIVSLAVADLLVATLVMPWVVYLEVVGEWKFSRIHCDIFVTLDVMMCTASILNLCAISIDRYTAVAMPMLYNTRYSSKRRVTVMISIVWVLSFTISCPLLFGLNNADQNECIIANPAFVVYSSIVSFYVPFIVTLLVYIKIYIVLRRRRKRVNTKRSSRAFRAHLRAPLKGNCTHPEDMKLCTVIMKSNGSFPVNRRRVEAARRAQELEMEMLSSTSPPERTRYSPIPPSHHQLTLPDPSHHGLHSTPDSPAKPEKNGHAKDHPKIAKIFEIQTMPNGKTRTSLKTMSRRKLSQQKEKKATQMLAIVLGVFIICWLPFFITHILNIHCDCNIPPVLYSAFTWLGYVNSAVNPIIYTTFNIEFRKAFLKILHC
5-hydroxytryptamine receptor 2B, sequence (P41595 whole entry): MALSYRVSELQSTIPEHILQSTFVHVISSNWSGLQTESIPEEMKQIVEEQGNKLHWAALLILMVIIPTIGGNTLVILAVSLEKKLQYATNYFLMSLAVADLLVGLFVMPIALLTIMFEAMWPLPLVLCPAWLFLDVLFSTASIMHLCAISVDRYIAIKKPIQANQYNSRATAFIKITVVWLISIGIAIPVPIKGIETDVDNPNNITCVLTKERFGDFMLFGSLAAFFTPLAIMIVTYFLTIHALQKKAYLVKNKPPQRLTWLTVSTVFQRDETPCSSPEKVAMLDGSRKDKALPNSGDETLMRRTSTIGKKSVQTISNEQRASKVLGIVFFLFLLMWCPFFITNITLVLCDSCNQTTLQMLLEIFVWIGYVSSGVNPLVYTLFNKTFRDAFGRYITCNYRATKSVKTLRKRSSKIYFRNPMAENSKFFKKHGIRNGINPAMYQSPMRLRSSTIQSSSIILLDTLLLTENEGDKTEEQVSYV

For O=c1ccc2ccc(OCCCCN3CCN(c4cccc5sccc45)CC3)cc2[nH]1 [BREXPIPRAZOLE], which Ki [1] is on record?
Its Ki is 0.398 nM.

What about the Ki [2] of the same compound?
The Ki was 0.3 nM.

What about the Ki [3] of the same compound?
The Ki was 3.7 nM.

And the Ki [4]?
The Ki was 0.12 nM.

For O=C1CC(c2c[nH]c3ccccc23)C(=O)N1CCCCN1CCC(c2c[nH]c3ccc(F)cc23)CC1 (stereo not given), which deltaT [5] is on record?
Its deltaT is 0.3 °C.

And the Activity [6]?
Its Activity is “Active”.

And the deltaT [7]?
Its deltaT is -1.4 °C.

What about the deltaT [8] of the same compound?
Its deltaT is -2 °C.

What about the deltaT [9] of the same compound?
The deltaT was -2.2 °C.

What about the deltaT [10] of the same compound?
The deltaT was 0.4 °C.

And the deltaT [11]?
The deltaT was -0.5 °C.

What about the deltaT [12] of the same compound?
The deltaT was -0.8 °C.

What about the deltaT [13] of the same compound?
The deltaT was -1 °C.

What about the deltaT [14] of the same compound?
Its deltaT is 0.5 °C.

And the deltaT [15]?
Its deltaT is 0.1 °C.

What about the deltaT [16] of the same compound?
Its deltaT is 0 °C.

And the deltaT [17]?
Its deltaT is -0.4 °C.

What about the deltaT [18] of the same compound?
The deltaT was 0.2 °C.

What about the deltaT [19] of the same compound?
Its deltaT is 0.2 °C.

What about the deltaT [20] of the same compound?
Its deltaT is 0.3 °C.

What about the deltaT [21] of the same compound?
Its deltaT is -0.3 °C.

What about the deltaT [22] of the same compound?
Its deltaT is -0.1 °C.

And the deltaT [23]?
Its deltaT is 0.7 °C.

What about the half-life at 1 µM [24] of the same compound?
The half-life at 1 µM was 11.5 min.

And the inhibition at 10 µM [25]?
Its inhibition at 10 µM is 96.4%.

And the inhibition at 1 µM [26]?
The inhibition at 1 µM was 84.7%.

What about the inhibition at 0.1 µM [27] of the same compound?
Its inhibition at 0.1 µM is 45.1%.

And the Activity [28]?
Its Activity is “Active”.

And the Activity [29]?
Its Activity is “Active”.

With CC[C@@H](CO)NC(=O)[C@@H]1C=C2c3cccc4c3c(cn4C)C[C@H]2N(C)C1 [METHYSERGIDE MALEATE] as the compound, how does the Ki [30] read?
Its Ki is 0.794 nM.
